Source: US9734283B2, “Genomic features associated with epigenetic control regions and transgenerational inheritance of epimutations” (priority 2011, dated 2017)
Entries after “also recorded” stand apart in the source; their conditions may differ.

Key:
[1] = tested on: Harlan Sprague Dawley rats; test: Onset of puberty in F1-F3 generation after F0 gestational exposure; assay type: in vivo, rat
Excerpt: At proestrus as determined by daily vaginal smears, the female rats, (90 days) were pair-mated with male rats (120 days). On the next day, the females were separated and their vaginal smears were examined microscopically and if they were sperm-positive (day 0) the rats were tentatively considered pregnant and then weighed with a digital animal weighing balance to monitor increases in body weight. Vaginal smears were continued for monitoring diestrus status in these rats until day 7. […] These pregnant rats were then given daily intraperitoneal injections of any one of the following single chemicals or mixtures with an equal volume of sesame oil (Sigma) on days E-8 through E-14 of gestation. Treatment groups were Control, Pesticide (Permethrin+DEET), Plastics (Bisphenol-A, DBP and DEHP), Dioxin (TCDD), and Jet Fuel (JP8 hydrocarbon). The pregnant female rats treated with various mixtures were designated as the F0 generation. When there was a drop in the litter size and the sex ratio of pups in F1 generation of Plastics group, another treatment group was included with only half the dose of Bisphenol-A, DBP and DEHP and this group was designated ‘Low Dose Plastics’ group.
The offspring of the F0 generation were the F1 generation. Likewise F2 and F3 generation offspring were generated. These rats were weaned from their mothers at 21 days of age. At weaning, the following weaning traits were measured; litter size, sex ratio, weaning weight (in grams), and anogenital index (AGI). […] Weaning weights of rats were measured by a digital balance. AGI was computed as the AGD in mm (from the bottom of the anal opening to the top of the genital opening) per gram of body weight at weaning. Starting at the age of 30 days for females and 35 days for males, puberty checks were performed. These checks were performed on a daily basis until puberty in each rat was confirmed. Onset of puberty for females was indicated by a clear vaginal opening, and for males it was indicated when the glans penis was able to fully extend free of the preputial fold (balano-preputial separation).

[2] = Serum hormone levels, F3 generation; assay type: in vivo, rat; details: F3 generation males
Protocol: Both female and male rats of F1, F2 and F3 generation at 90-120 days of age were euthanized by CO2 inhalation and cervical dislocation for dissection, collection and examination of tissues including testis, epididymis, and ovary. Body and tissue weights were measured at dissections. Blood samples were collected, allowed to clot, centrifuged and serum samples stored for hormone assays. Tissues were fixed in Bouins solution (Sigma) and 70% ethanol, then processed for paraffin embedding by standard procedures for histopathology examination. Five-micrometer sections were made and were either unstained or stained with H & E stain.

[3] = tested on: sperm promoter epigenome (DNA methylation); test: MeDIP-Chip analysis of F3 generation sperm promoter DNA methylation; assay type: in vivo, rat; details: F3 generation sperm vs vehicle control; p<10^-5
Protocol: Sperm heads were separated from tails through sonication following previously described protocol (without protease inhibitors) and then purified using a series of washes and centrifugations from a total of nine F3 generation rats per treatment lineage that were 120 days of age. DNA extraction on the purified sperm heads was performed as previously described. Equal concentrations of DNA from individual sperm samples were then used to produce pools of DNA material. Three DNA pools were produced in total per treatment, which contained the same amount of sperm DNA from three animals. Therefore a total of 45 animals were used for building three DNA pools per treatment for the 4 experimental groups plus controls. These DNA pools were then used for methylated DNA immunoprecipitation (MeDIP). MeDIP was performed as follows: 6 μg of genomic DNA was subjected to series of three 20 pulse sonications at 20% amplitude and the appropriate fragment size ([…]) was verified through 2% agarose gels; the sonicated genomic DNA was resuspended in 350 ul TE and denaturated for 10 min at 95° C. and then immediately placed on ice for 5 min; 100 ul of 5×IP buffer (50 mM Na-phosphate pH7, 700 mM NaCl, 0.25% Triton X-100) was added to the sonicated and denatured DNA. […]

[4] = tested on: testicular spermatogenic cells; test: Testicular spermatogenic cell apoptosis (TUNEL assay), F1-F3 lineage after F0 gestational exposure; assay type: in vivo, mouse; details: 129 strain, flutamide 20 mg/kg/day IP to F0 E7-E13; any age or generation analyzed; vs control
Protocol: (§1) The experimental design involved exposing gestating female inbred 129 strain and outbred CD-1 strain mice to daily intraperitoneal (IP) injections of vehicle (DMSO) (control) or vinclozolin at two doses, 100 mg/kg/day (V1) or 200 mg/kg/day (V2), between embryonic day 7-13 of gestation. In addition, a comparison was used with flutamide IP injections at a 20/mg/kg/day dose. The F1 generation males and females from different litters were bred to generate the F2 generation animals and F2 generation males and females from different litters were bred to generate the F3 generation animals, see Methods below. No sibling or cousin breedings occurred to avoid any inbreeding artifacts. Selected F1, F2 and F3 generation animals from postnatal 90 (P90) or 300 (P300) days of age were analyzed for testis, sperm and other pathologies as previously described.^11, 20, 21
Timed pregnant inbred 129 mice were given intraperitoneal injections with vinclozolin (100 mg/kg·day, 99% pure; ChemService, West Chester, Pa.), flutamide (20 mg/kg·day, Sigma, St. Louis, Mo.) or DMSO in sesame oil (vehicle) as controls, while timed pregnant outbred CD-1 mice were given intraperitoneal injections (IP) with vinclozolin doses: 100 mg/kg·day (V1) or 200 mg/kg·day (V2) or DMSO in sesame oil as controls.^21 Mice were given injections from embryonic day (E) E7-E13, with plug date equal to day 0. Controls were injected with vehicle (DMSO) dose and were matched with vinclozolin or flutamide treatment animals within the same mouse strain at the time of injection and were analyzed together throughout all three generations. […] Male mice were collected and analyzed between P60-P90 (P90) for all generations and treatment groups. […]

caudal epididymal sperm = test: Epididymal sperm motility and concentration analyses; assay type: in vivo, mouse; details: primarily in the F1 generation males
Protocol: The sperm motility was determined using caudal epididymal sperm. The epididymis was dissected free of connective tissue and a small cut made to the cauda. The tissue was placed in 2 ml F12 culture medium containing 0.1% BSA for 10 minutes at 37° C. Fifty microliters was placed on a warm slide and gently cover-slipped. The specimen was immediately examined using phase contrast microscopy with 200×magnification. The sperm motility assays examined rapid progressive, slow progressive and non-progressive motility according to WHO category.^51 The ratio of motile sperm to the total number of sperm, including immotile sperm, was calculated. Approximately 50-100 sperm were counted per microscopic field. The procedure was repeated at least twice with a new specimen from the same epididymis. Epididymal sperm count was determined using the same epididymis according to a previously described method with some modifications.^25, 52 Briefly, the epididymis that was placed in the 2 ml of culture medium was minced. The tissue pieces were stored at 4° C. for 48 hours to immobilize the sperm. Three independent sperm samples were counted using a hemocytometer. The counts were averaged and used as a replicate in statistical analysis. The control and vinclozolin generation analysis and the control and flutamide generation analysis for an individual experiment were done at the same time. All analyses were done blinded, such that different individuals were used for collection and counting.

129 and CD-1 mice = test: Litter size, sex ratio, body and tissue weights (toxicity); assay type: in vivo, mouse; details: transient embryonic exposure
Protocol: as §1
Timed pregnant inbred 129 mice were given intraperitoneal injections with vinclozolin (100 mg/kg·day, 99% pure; ChemService, West Chester, Pa.), flutamide (20 mg/kg·day, Sigma, St. Louis, Mo.) or DMSO in sesame oil (vehicle) as controls, while timed pregnant outbred CD-1 mice were given intraperitoneal injections (IP) with vinclozolin doses: 100 mg/kg·day (V1) or 200 mg/kg·day (V2) or DMSO in sesame oil as controls.^21 Mice were given injections from embryonic day (E) E7-E13, with plug date equal to day 0. Controls were injected with vehicle (DMSO) dose and were matched with vinclozolin or flutamide treatment animals within the same mouse strain at the time of injection and were analyzed together throughout all three generations. The number of treated gestating females used were: for mouse 129 strain (3 controls and 4 vinclozolin treated); for mouse 129 strain flutamide 20 mg/kg/day dose (3 controls and 3 flutamide treated); and for mouse CD-1 strain (4 control and 3 vinclozolin treated (100 mg/kg/day (V1), 3 vinclozolin 200 mg/kg/day (V2)). F1 postnatal (P)P90 males and females from different litters of control, vinclozolin and flutamide treatment groups were bred to generate the F2 generation. F2 generation mice were bred to generate the F3 generation. Breedings were carefully monitored to eliminate any sibling or cousin breeding to remove potential phenotypes as a result of inbreeding. Male mice were collected and analyzed between P60-P90 (P90) for all generations and treatment groups. The number of P90 males collected for replicates for the mouse 129 strain vinclozolin treatment group (i.e. n value) were: for F1 (8 control, 11 vinclozolin); for F2 (11 control, 22 vinclozolin); and for F3 (11 control, 11 vinclozolin). […]

[5] = transgenerational F3 generation

| SMILES | onset of puberty for females ([1]; F2 generation) | onset of puberty in males ([1]; F2 generation) | onset of puberty in females [1, 5] | onset of puberty in males [1, 5] | testosterone levels [2] | number of DMR [3] | apoptotic germ cells in the testis [4] | mean percentage of motile epididymal sperm (caudal epididymal sperm) | body weight, testis weight index, or kidney weight index (129 and CD-1 mice; F1-F3) | litter size or male/female sex ratio (129 and CD-1 mice; all generations analyzed) |
| --- | --- | --- | --- | --- | --- | --- | --- | --- | --- | --- |
| Clc1cc2c(cc1Cl)Oc1cc(Cl)c(Cl)cc1O2 [dioxin, 2,3,7,8-tetrachlorodibenzo-p-dioxin] | early onset | early onset | early onset; also recorded: advanced | no effect | reduction | 50 | – | – | – | – |
| CC(C)C(=O)Nc1ccc([N+](=O)[O-])c(C(F)(F)F)c1 [flutamide] | – | – | – | – | – | – | no differences | reduction | no consistent transgenerational differences | no consistent transgenerational effects |
